The term Kd denotes the concentration at which binding is half-saturated. Low values mean higher affinity, high ones lower affinity.

For 4 sequences, Kd and KD results are on record in paper PMC9006954, “Computer-Based Immunoinformatic Analysis to Predict Candidate T-Cell Epitopes for SARS-CoV-2 Vaccine Design” (Frontiers in Immunology, 2022).

The assay addresses T1, HLA-A*11:01 protein (Homo sapiens, UniProt P04439, A114D/D185E/E176A/F33Y/L180Q/S129P/T187R).
T1 construct: biotin (biotinylated)
Description: Bio-Layer Interferometry (BLI) affinity test, Octet R8. To be noted: Octet R8, SSA sensors, peptides 100-3.125 µM in PBST (PBS+0.02%Tween20+1% DMSO), balance, binding, dissociation 60 s each. (In BLI a coated tip is dipped into the sample, and binding shifts an interference pattern.)

Where no end group is shown, it is not given here.

In turn, GVSPTKLNDL [reference compound] had a Kd of 656 µM. As to FSTFKCYGV [reference compound], the Kd was 29.1 µM. On the same count and under the same terms, the figure for KCYGVSPTK [reference compound] is 23.5 µM.

Take SQCVNLTTR [reference compound]: the KD result is “Non-binding”.
